Data published in publication PMC6420960 (Science translational medicine, 2015).
Entries after “also recorded” stand apart in the source; their conditions may differ. Where a name gives a salt, the structure may show the parent alone. Read-outs that look alike come from different tables or passages of the source.

What was measured:
HCV-Luc [1] = experiment: In vitro combination evaluation; conditions: for CalcuSyn CI value: in combination with (S)-CCZ at or near their EC50 values; for MacSynergy Log volume: in combination with (S)-CCZ, Bliss independence model
H1-histamine receptor = H1-histamine receptor (Homo sapiens, UniProt P35367); experiment: β-arrestin H1-histamine receptor assay; assay type: cell-based
HCV-Luc [2] = experiment: HCV-Luc infection assay; conditions: for EC90: read-out: HCV-Luc EC90; for anti-HCV activity (in words): NPC screen / confirmation assays; for selectivity ratio: human
HIV = conditions: cited from earlier work
ATPlite assay = conditions: human, Huh7.5.1 cells
[3] = system: wild-type HCVcc (genotype 2a, JFH-1 strain); assay type: cell-based, Hepatitis C virus; conditions: 10 μM; compared with DMSO treatment
[4] = Microsomal stability assay, mouse microsomes; assay type: in vitro ADME
Huh7.5.1 cells [5] = system: Huh7.5.1 cells
[6] = Microsomal stability assay, human microsomes; assay type: in vitro ADME
Huh7.5.1 cells [7] = system: Huh7.5.1 cells; remark: listed apart in the source
[8] = Mouse pharmacokinetics and tissue distribution, single intraperitoneal dose; conditions: for brain levels (in words): (S)-CCZ 50 mg/kg, (S)-nor-CCZ 10 mg/kg, single intraperitoneal dose
[9] = system: dengue reporter virus particle; experiment: Dengue reporter virus particle; assay type: cell-based; conditions: read-out: EC50 in dengue RVP assay
HCVsc, genotype 2a = assay type: cell-based, Hepatitis C virus; conditions: 10 μM
[10] = Cytotoxicity in the dengue RVP assay; assay type: cell-based
[11] = system: genotype 1a replicon in Huh7.5.1 cells; assay type: cell-based, Hepatitis C virus; conditions: 10 μM
[12] = system: HCV chimeric genotype viruses (1a, 1b, 2a, 2b, 3a, 4a, 5a, 6a, and 7a); experiment: HCV chimeric genotype virus infection of Huh7.5.1 cells; assay type: cell-based, Hepatitis C virus; conditions: 10 μM
[13] = system: hepatitis B virus, HCV replicon, herpes simplex virus-1, human cytomegalovirus, vaccinia virus, dengue virus, influenza A (H1N1) virus, respiratory syncytial …; assay type: cell-based
HCV genotype 1b = assay type: in vivo, Alb-uPA/SCID mice engrafted with primary human hepatocytes
HCV-Luc [14] = experiment: Time-of-addition experiment; assay type: cell-based, Hepatitis C virus; conditions: for inhibitory kinetics, time-of-addition profile: bafilomycin A1 10 nM, sofosbuvir 10 μM, 2-hour incubations; for effect on viral level, time of addition: treatment during the attachment step
HCV-Luc [15] = experiment: HCV-Luc assay in 40% human serum; assay type: cell-based, Hepatitis C virus; conditions: read-out: protein binding adjusted EC50
[16] = day 28
wild-type HCVcc = assay type: cell-based, Hepatitis C virus; conditions: primary human hepatocytes; titration, dose-dependent manner
[17] = system: genotype 1b and 2a HCV replicon cell lines; assay type: cell-based, Hepatitis C virus; conditions: 10 μM
HCVpp genotype 1a and 1b = assay type: cell-based, Hepatitis C virus; conditions: 10 μM; Huh7.5.1 cells
[18] = mouse, in vivo, ip, 10 mg/kg
[19] = read-out: HCV-Luc EC50, Huh7.5.1 cells, luciferase signal 48 hours after treatment
[20] = Huh7.5.1 cells, luciferase signal 48 hours after treatment

H1-histamine receptor, sequence (P35367 whole entry): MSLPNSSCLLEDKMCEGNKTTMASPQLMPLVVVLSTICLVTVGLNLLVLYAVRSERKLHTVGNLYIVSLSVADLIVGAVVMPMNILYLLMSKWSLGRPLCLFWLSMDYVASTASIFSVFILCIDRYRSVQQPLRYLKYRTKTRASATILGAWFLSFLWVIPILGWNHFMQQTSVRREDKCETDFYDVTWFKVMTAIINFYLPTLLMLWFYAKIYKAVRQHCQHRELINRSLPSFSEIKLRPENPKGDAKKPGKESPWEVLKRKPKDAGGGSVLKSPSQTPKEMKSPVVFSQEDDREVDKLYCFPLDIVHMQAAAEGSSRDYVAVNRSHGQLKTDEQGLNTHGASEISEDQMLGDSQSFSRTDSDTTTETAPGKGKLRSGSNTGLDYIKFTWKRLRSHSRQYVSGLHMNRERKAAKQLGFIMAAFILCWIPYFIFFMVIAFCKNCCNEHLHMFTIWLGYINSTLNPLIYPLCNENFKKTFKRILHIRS

Molecule: NC(=O)c1ncn([C@@H]2O[C@H](CO)[C@@H](O)[C@H]2O)n1 [Ribavirin]
- CalcuSyn CI value (HCV-Luc [1]): 0.630 ± 0.106
- MacSynergy Log volume (HCV-Luc [1]): +++ (strong synergy (log volume ≥ 9))

Molecule: CN1CCN(C(c2ccccc2)c2ccc(Cl)cc2)CC1 (racemic) [Racemic CCZ, chlorcyclizine HCl]
- Antihistamine activity at 10 nM (H1-histamine receptor): 72.60%
- EC50 (HCV-Luc [2]; Hepatitis C virus): ~50 nM
- EC50 (HCV-Luc [2]; Hepatitis C virus, Huh-7.5.1, 48 h, read-out: HCV-Luc EC50): 44 ± 11 nM
- EC90 (HCV-Luc [2]; Hepatitis C virus, Huh-7.5.1, 48 h): 1400 ± 450 nM
- activity against HIV (HIV): reported activity against HIV
- CC50 (ATPlite assay): 49800 ± 17200 nM
- Intracellular and extracellular viral RNA levels [3]: significantly reduced

Molecule: Clc1ccc(C(c2ccccc2)N2CCNCC2)cc1 (stereo not shown) [nor-CCZ, nor-chlorcyclizine]
- T1/2 in mice (microsomes) relative to CCZ [4]: more than fourfold longer
- anti-HCV activity (in words) (HCV-Luc [2]): comparable to that of CCZ
- selectivity ratio (HCV-Luc [2]): 188
- cytotoxicity compared with CCZ (in words) (Huh7.5.1 cells [5]): higher cytotoxicity
- half-life [6]: > 1.67 h

Molecule: CCC[C@H](NC(=O)[C@@H]1[C@H]2CCC[C@H]2CN1C(=O)[C@@H](NC(=O)[C@@H](NC(=O)c1cnccn1)C1CCCCC1)C(C)(C)C)C(=O)C(=O)NC1CC1 [Telaprevir]
- CalcuSyn CI value (HCV-Luc [1]): 0.426 ± 0.138
- MacSynergy Log volume (HCV-Luc [1]): +++ (strong synergy (log volume ≥ 9))

Molecule: Clc1ccc(Cn2c(CN3CCCC3)nc3ccccc32)cc1 [clemizole]
- anti-HCV activity (in words) (HCV-Luc [2]): much less potent activity

Molecule: CN1CCN([C@H](c2ccccc2)c2ccc(Cl)cc2)CC1 [(R)-CCZ]
- Antihistamine activity at 10 nM (H1-histamine receptor): 88.00%
- EC50 (HCV-Luc [2]; [19]): 20 ± 5 nM
- EC90 (HCV-Luc [2]; [20]): 1090 ± 370 nM
- CC50 (Huh7.5.1 cells [5]): 37500 ± 4150 nM
- Intracellular and extracellular viral RNA levels [3]: significantly reduced

Molecule: COC(=O)N[C@H](C(=O)N1CCC[C@H]1c1nc(-c2ccc(-c3ccc(-c4c[nH]c([C@@H]5CCCN5C(=O)[C@@H](NC(=O)OC)C(C)C)n4)cc3)cc2)c[nH]1)C(C)C [Daclatasvir]
- CalcuSyn CI value (HCV-Luc [1]): 0.427 ± 0.142
- MacSynergy Log volume (HCV-Luc [1]): +++ (strong synergy (log volume ≥ 9))

Molecule: IFN-α
- CalcuSyn CI value (HCV-Luc [1]): 0.609 ± 0.128
- MacSynergy Log volume (HCV-Luc [1]): +++ (strong synergy (log volume ≥ 9))

Molecule: CN1CCCN(C(c2ccccc2)c2ccc(Cl)cc2)CC1 (stereo not shown) [homochlorcyclizine]
- EC50 (HCV-Luc [2]; Hepatitis C virus): ~50 nM
- selectivity ratio (HCV-Luc [2]): 318 to 924

Molecule: CN1CCN([C@@H](c2ccccc2)c2ccc(Cl)cc2)CC1 [(S)-CCZ]
- cytotoxicity after continuous treatment for 21 days (Huh7.5.1 cells [7]; 10 μM): low cytotoxicity
- cytotoxicity after continuous treatment for 21 days (Huh7.5.1 cells [7]; 1.0 and 5.0 μM): no cytotoxicity
- ratio of liver to plasma ([8]; 50 mg/kg intraperitoneal, assuming liver density 1.0 g/ml): 29.6
- brain levels (in words) [8]: comparable to liver levels
- EC50 [9]: 1880 nM
- inhibitory activity in the HCVsc assay (HCVsc, genotype 2a): strong inhibitory activity
- CC50 [10]: > 31600 nM
- HCV replication, transient replicon [11]: not inhibited
- extracellular HCV RNA levels and infectivity (TCID50/ml) [12]: inhibited
- Antihistamine activity at 10 nM (H1-histamine receptor): 41.70%
- antiviral activity in NIAID antiviral screen [13]: little or no antiviral activity
- decrease of genotype 1b virus titer (HCV genotype 1b; 2 mg/kg daily for 4 weeks): about 1 log
- reduction of HCV titers from pretreatment baseline (HCV genotype 1b; 50 and 10 mg/kg daily for 4 weeks, genotype 1b): 2 log
- HCV titers during the treatment period (drug resistance) (HCV genotype 1b; genotype 1b and 2a infections): without rebound
- EC50 (HCV-Luc [2]; [19]): 24 ± 9 nM
- EC90 (HCV-Luc [2]; [20]): 1440 ± 430 nM
- inhibition of infection, time of addition (HCV-Luc [14]; added 2 or 3 hours after entry): no significant inhibition
- inhibition of infection, time of addition (HCV-Luc [14]; added 1 hour after synchronous entry): Less inhibitory effect
- inhibition of infection, time of addition (HCV-Luc [14]; added during viral attachment at 4°C for 2 hours or during the first 2 hours of synchronous entry at 37°C): potent inhibition
- CC50 (Huh7.5.1 cells [5]): 33400 ± 2440 nM
- EC50 (HCV-Luc [15]): 240 nM
- liver to plasma ratio ([16]; 2 mg/kg group): 38
- liver to plasma ratio ([16]; 10 mg/kg group): 41
- liver concentration ([16]; (S)-CCZ dose of 2 mg/kg): 0.342 µM
- liver concentration ([16]; (S)-CCZ dose of 10 mg/kg): 2.66 µM
- Intracellular and extracellular viral RNA levels [3]: significantly reduced
- intracellular HCV RNA level (wild-type HCVcc): inhibited
- inhibitory effect on HCV replicon [17]: did not exert a significant inhibitory effect
- inhibitory effect on HCVpp entry (HCVpp genotype 1a and 1b): no significant inhibitory effect

Molecule: OCCOCCN1CCN(C(c2ccccc2)c2ccc(Cl)cc2)CC1 (stereo not shown) [hydroxyzine]
- EC50 (HCV-Luc [2]; Hepatitis C virus): ~50 nM
- selectivity ratio (HCV-Luc [2]): 318 to 924

Molecule: NCCc1c[nH]cn1 [Histamine]
- anti-HCV activity (in words) (HCV-Luc [2]): no anti-HCV activity; also recorded: no effect on HCV infection

Molecule: Clc1ccc([C@H](c2ccccc2)N2CCNCC2)cc1 [(S)-Nor-CCZ]
- ratio of average concentration in liver to plasma ([8]; 10 mg/kg intraperitoneal): 60.7
- brain levels (in words) [8]: comparable to liver levels
- Antihistamine activity at 10 nM (H1-histamine receptor): 2.24%
- EC50 (HCV-Luc [2]; [19]): 34 ± 12 nM
- EC90 (HCV-Luc [2]; [20]): 578 ± 99 nM
- CC50 (Huh7.5.1 cells [5]): 9310 ± 40 nM
- liver concentration ([16]; (S)-CCZ dose of 2 mg/kg): 3.16 µM
- liver concentration ([16]; (S)-CCZ dose of 10 mg/kg): 12.1 µM
- T1/2 compared to (S)-CCZ (in words) [18]: longer T1/2

Molecule: O=C(O)COCCN1CCN(C(c2ccccc2)c2ccc(Cl)cc2)CC1 (stereo not shown) [Cetirizine]
- anti-HCV activity (in words) (HCV-Luc [2]): not active

Molecule: NC(=O)COCCN1CCN(C(c2ccccc2)c2ccc(Cl)cc2)CC1 (stereo not shown) [cetirizine amide]
- EC50 (HCV-Luc [2]; [19]): 103 nM

Molecule: CC(C)OC(=O)[C@H](C)N[P@](=O)(OC[C@H]1O[C@@H](n2ccc(=O)[nH]c2=O)[C@](C)(F)[C@@H]1O)Oc1ccccc1 [Sofosbuvir]
- inhibitory kinetics, time-of-addition profile (HCV-Luc [14]): inhibited HCVcc infection when added at all the time points except during the attachment stage
- effect on viral level, time of addition (HCV-Luc [14]): no effect on viral level
- CalcuSyn CI value (HCV-Luc [1]): 0.362 ± 0.075
- MacSynergy Log volume (HCV-Luc [1]): +++ (strong synergy (log volume ≥ 9))

Molecule: CN1CCN(C(c2ccccc2)c2ccccc2)CC1 [Cyclizine]
- lower activity than CCZ (HCV-Luc [2]; relative to CCZ): 10 fold

Molecule: CO/C1=C\C(C)=C\[C@@H](C)[C@@H](O)[C@@H](C)C/C(C)=C/C=C/[C@H](OC)[C@@H]([C@@H](C)[C@@H](O)[C@H](C)[C@@]2(O)C[C@@H](O)[C@H](C)[C@@H](C(C)C)O2)OC1=O [Bafilomycin A1]
- inhibitory kinetics, time-of-addition profile (HCV-Luc [14]): only showed significant inhibitory effect when added during the first 2 hours of synchronous entry
- effect on viral level, time of addition (HCV-Luc [14]): no effect on viral level

Molecule: O[C@H]1[C@H]2c3cc4c(cc3CN3CCC(=C[C@@H]1O)[C@H]23)OCO4 [Lycorine-HCl, reference compound]
- EC50 [9]: 40.6 nM
- CC50 [10]: > 31600 nM

Molecule: CC(C)(C)NC(=O)N[C@H](C(=O)N1C[C@H]2[C@@H]([C@H]1C(=O)NC(CC1CCC1)C(=O)C(N)=O)C2(C)C)C(C)(C)C (stereo partly shown) [Boceprevir]
- CalcuSyn CI value (HCV-Luc [1]): 0.691 ± 0.114
- MacSynergy Log volume (HCV-Luc [1]): +++ (strong synergy (log volume ≥ 9))
